Measurements taken from ChEMBL document CHEMBL3232945 (Eur J Med Chem, 2014).

Tests used:
Rattus norvegicus [1] = assay: Toxicity in […] normotensive Wistar rat assessed as mean arterial pressure at 40 mg/kg, ip measured immediately at 0 min (reference value: 94.21 +/- 2.065 mmHg); type: organism-based, Artery; set-up: dose 40 mg/kg, route intraperitoneal; settings: in vivo, 0 h
Rattus norvegicus [2] = assay: Toxicity in anaesthetized-Wistar rat assessed as P-Q ECG interval at 40 mg/kg, ip after 30 mins (reference value: […] +/- 0.927 ms); type: organism-based; set-up: dose 40 mg/kg, route intraperitoneal; settings: in vivo, 0.5 h
Rattus norvegicus [3] = assay: Toxicity in anaesthetized-Wistar rat assessed as QRS ECG interval at 40 mg/kg, ip after 45 mins (reference value: 20.2 +/- 1.348 ms); type: organism-based; set-up: dose 40 mg/kg, route intraperitoneal; settings: in vivo, 0.75 h
Rattus norvegicus [4] = assay: Toxicity in anaesthetized-Wistar rat assessed as P-Q ECG interval at 40 mg/kg, ip after 45 mins (reference value: 52.5 +/- 0.780 ms); type: organism-based; set-up: dose 40 mg/kg, route intraperitoneal; settings: in vivo, 0.75 h
Rattus norvegicus [5] = assay: Antihypertensive activity in Wistar rat assessed as mean arterial pressure at 40 mg/kg, ip after 30 mins (reference value: 194.72 +/- 1.002 mmHg); type: functional, Artery; settings: route intraperitoneal
Rattus norvegicus [6] = assay: Antihypertensive activity in Wistar rat assessed as mean arterial pressure at 40 mg/kg, ip after 15 mins (reference value: 195.68 +/- 1.623 mmHg); type: functional, Artery; settings: route intraperitoneal
Rattus norvegicus [7] = assay: Toxicity in anesthetized-normotensive Wistar rat assessed as heart rate at 40 mg/kg, ip measured immediately at 0 min (reference value: 316.62 +/- 9.643 bpm); type: organism-based; set-up: dose 40 mg/kg, route intraperitoneal; settings: in vivo, 0 h
Rattus norvegicus [8] = assay: Toxicity in […] normotensive Wistar rat assessed as mean arterial pressure at 40 mg/kg, ip after 60 mins (reference value: 95.07 +/- 1.973 mmHg); type: organism-based, Artery; set-up: dose 40 mg/kg, route intraperitoneal; settings: in vivo, 1 h
Rattus norvegicus [9] = assay: Toxicity in anaesthetized-Wistar rat assessed as QRS ECG interval at 40 mg/kg, ip measured immediately at 0 min (reference value: 19.6 +/- 1.142 ms); type: organism-based; set-up: dose 40 mg/kg, route intraperitoneal; settings: in vivo, 0 h
Rattus norvegicus [10] = assay: Toxicity in anesthetized-normotensive Wistar rat assessed as heart rate at 40 mg/kg, ip after 30 mins (reference value: 317.68 +/- 7.631 bpm); type: organism-based; set-up: dose 40 mg/kg, route intraperitoneal; settings: in vivo, 0.5 h
Rattus norvegicus [11] = assay: Toxicity in anaesthetized-Wistar rat assessed as QRS ECG interval at 40 mg/kg, ip after 15 mins (reference value: 18.9 +/- 1.563 ms); type: organism-based; set-up: dose 40 mg/kg, route intraperitoneal; settings: in vivo, 0.25 h
Rattus norvegicus [12] = assay: Antihypertensive activity in Wistar rat assessed as mean arterial pressure at 40 mg/kg, ip measured immediately at 0 min (reference value: 194.08 +/- 1.962 mmHg); type: functional, Artery; settings: route intraperitoneal
Rattus norvegicus [13] = assay: Toxicity in anesthetized-normotensive Wistar rat assessed as heart rate at 40 mg/kg, ip after 45 mins (reference value: 316.82 +/- 8.452 bpm); type: organism-based; set-up: dose 40 mg/kg, route intraperitoneal; settings: in vivo, 0.75 h
Rattus norvegicus [14] = assay: Toxicity in anesthetized-normotensive Wistar rat assessed as heart rate at 40 mg/kg, ip after 60 mins (reference value: 314.96 +/- 9.442 bpm); type: organism-based; set-up: dose 40 mg/kg, route intraperitoneal; settings: in vivo, 1 h
Rattus norvegicus [15] = assay: Toxicity in anaesthetized-Wistar rat assessed as QRS ECG interval at 40 mg/kg, ip after 30 mins (reference value: 19.9 +/- 1.393 ms); type: organism-based; set-up: dose 40 mg/kg, route intraperitoneal; settings: in vivo, 0.5 h
Rattus norvegicus [16] = assay: Toxicity in anaesthetized-Wistar rat assessed as P-Q ECG interval at 40 mg/kg, ip after 15 mins (reference value: 52.2 +/- 1.158 ms); type: organism-based; set-up: dose 40 mg/kg, route intraperitoneal; settings: in vivo, 0.25 h
Rattus norvegicus [17] = assay: Antiarrhythmic activity in barium chloride-induced Wistar rat assessed as increase in mortality time at 40 mg/kg, ip administered 60 mins before barium chloride challenge (reference value: 682.8 +/- 9.656 secs); type: functional, Heart; settings: route intraperitoneal
Rattus norvegicus [18] = assay: Toxicity in anaesthetized-Wistar rat assessed as Q-T ECG interval at 40 mg/kg, ip measured immediately at 0 min (reference value: 78.8 +/- 1.030 ms); type: organism-based; set-up: dose 40 mg/kg, route intraperitoneal; settings: in vivo, 0 h
Rattus norvegicus [19] = assay: Antihypertensive activity in Wistar rat assessed as mean arterial pressure at 40 mg/kg, ip after 45 mins (reference value: 193.96 +/- 0.865 mmHg); type: functional, Artery; settings: route intraperitoneal
Rattus norvegicus [20] = assay: Toxicity in […] normotensive Wistar rat assessed as mean arterial pressure at 40 mg/kg, ip after 15 mins (reference value: 93.81 +/- 1.543 mmHg); type: organism-based, Artery; set-up: dose 40 mg/kg, route intraperitoneal; settings: in vivo, 0.25 h
Rattus norvegicus [21] = assay: Toxicity in anaesthetized-Wistar rat assessed as P-Q ECG interval at 40 mg/kg, ip measured immediately at 0 min (reference value: 52.4 +/- 0.927 ms); type: organism-based; set-up: dose 40 mg/kg, route intraperitoneal; settings: in vivo, 0 h
Rattus norvegicus [22] = assay: Antihypertensive activity in Wistar rat assessed as mean arterial pressure at 40 mg/kg, ip after 60 mins (reference value: 195.11 +/- 0.531 mmHg); type: functional, Artery; settings: route intraperitoneal
Rattus norvegicus [23] = assay: Toxicity in anaesthetized-Wistar rat assessed as Q-T ECG interval at 40 mg/kg, ip after 30 mins (reference value: 78.3 +/- 0.860 ms); type: organism-based; set-up: dose 40 mg/kg, route intraperitoneal; settings: in vivo, 0.5 h
Rattus norvegicus [24] = assay: Toxicity in anaesthetized-Wistar rat assessed as Q-T ECG interval at 40 mg/kg, ip after 45 mins (reference value: 78.8 +/- 0.927 ms); type: organism-based; set-up: dose 40 mg/kg, route intraperitoneal; settings: in vivo, 0.75 h
Rattus norvegicus [25] = assay: Antiarrhythmic activity in barium chloride-induced Wistar rat assessed as increase in appearance time of arrhythmia at 40 mg/kg, ip administered 60 mins before barium chloride challenge (reference value: 129.4 +/- 4.373 sec); type: functional, Heart; settings: route intraperitoneal
Rattus norvegicus [26] = assay: Toxicity in anaesthetized-Wistar rat assessed as Q-T ECG interval at 40 mg/kg, ip after 15 mins (reference value: 79.4 +/- 1.270 ms); type: organism-based; set-up: dose 40 mg/kg, route intraperitoneal; settings: in vivo, 0.25 h
Rattus norvegicus [27] = assay: Toxicity in anaesthetized-Wistar rat assessed as QRS ECG interval at 40 mg/kg, ip after 60 mins (reference value: 19.3 +/- 0.873 ms); type: organism-based; set-up: dose 40 mg/kg, route intraperitoneal; settings: in vivo, 1 h
Rattus norvegicus [28] = assay: Toxicity in […] normotensive Wistar rat assessed as mean arterial pressure at 40 mg/kg, ip after 30 mins (reference value: 94.68 +/- 1.213 mmHg); type: organism-based, Artery; set-up: dose 40 mg/kg, route intraperitoneal; settings: in vivo, 0.5 h
Rattus norvegicus [29] = assay: Toxicity in […] normotensive Wistar rat assessed as mean arterial pressure at 40 mg/kg, ip after 45 mins (reference value: 94.83 +/- 0.943 mmHg); type: organism-based, Artery; set-up: dose 40 mg/kg, route intraperitoneal; settings: in vivo, 0.75 h
Rattus norvegicus [30] = assay: Toxicity in anesthetized-normotensive Wistar rat assessed as heart rate at 40 mg/kg, ip after 15 mins (reference value: 313.93 +/- 9.912 bpm); type: organism-based; set-up: dose 40 mg/kg, route intraperitoneal; settings: in vivo, 0.25 h
Rattus norvegicus [31] = assay: Toxicity in anaesthetized-Wistar rat assessed as Q-T ECG interval at 40 mg/kg, ip after 60 mins (reference value: 79.7 +/- 0.965 ms); type: organism-based; set-up: dose 40 mg/kg, route intraperitoneal; settings: in vivo, 1 h
Rattus norvegicus [32] = assay: Toxicity in anaesthetized-Wistar rat assessed as P-Q ECG interval at 40 mg/kg, ip after 60 mins (reference value: […] +/- 0.924 ms); type: organism-based; set-up: dose 40 mg/kg, route intraperitoneal; settings: in vivo, 1 h

| SMILES | Activity (Rattus norvegicus [1]) [mmHg] | Activity (Rattus norvegicus [2]) [min] | Activity (Rattus norvegicus [3]) [min] | Activity (Rattus norvegicus [4]) [min] | Activity (Rattus norvegicus [5]) [mmHg] | Activity (Rattus norvegicus [6]) [mmHg] | Activity (Rattus norvegicus [7]) [bpm] | Activity (Rattus norvegicus [8]) [mmHg] | Activity (Rattus norvegicus [9]) [min] | Activity (Rattus norvegicus [10]) [bpm] | Activity (Rattus norvegicus [11]) [min] | Activity (Rattus norvegicus [12]) [mmHg] | Activity (Rattus norvegicus [13]) [bpm] | Activity (Rattus norvegicus [14]) [bpm] | Activity (Rattus norvegicus [15]) [ms] | Activity (Rattus norvegicus [16]) [min] | Time (Rattus norvegicus [17]) [s] | Activity (Rattus norvegicus [18]) [min] | Activity (Rattus norvegicus [19]) [mmHg] | Activity (Rattus norvegicus [20]) [mmHg] | also measured |
| --- | --- | --- | --- | --- | --- | --- | --- | --- | --- | --- | --- | --- | --- | --- | --- | --- | --- | --- | --- | --- | --- |
| CCCN(CCC)CC(O)CN1C(=O)/C(=C\c2ccccc2)S/C1=N\c1ccccc1 (centres undefined) | 95.41 | 51.3 | 24.1 | 52.4 | 170.1 | 184.76 | 329.62 | 88.98 | 22.8 | 289.52 | 23.2 | 193.57 | 305.32 | 312.43 | 23.8 | 49.7 | 938.4 | 72.5 | 153.26 | 91.1 | Activity (Rattus norvegicus [21]): 49.4 ms; Activity (Rattus norvegicus [22]): 172.23 mmHg; Activity (Rattus norvegicus [23]): 73.4 min; Activity (Rattus norvegicus [24]): 74.9 min; Time (Rattus norvegicus [25]): 266.1 s; Activity (Rattus norvegicus [26]): 72.9 min; Activity (Rattus norvegicus [27]): 22.5 min; Activity (Rattus norvegicus [28]): 79.16 mmHg; Activity (Rattus norvegicus [29]): 72.37 mmHg; Activity (Rattus norvegicus [30]): 319.34 bpm; Activity (Rattus norvegicus [31]): 72.7 ms; Activity (Rattus norvegicus [32]): 50.2 min |
| CCN(CC)CC(O)CN1C(=O)/C(=C\c2ccccc2)S/C1=N\c1ccccc1 (centres undefined) | 91.39 | 53.8 | 20.6 | 54.2 | 161.27 | 172.98 | 319.65 | 73.31 | 18.4 | 274.66 | 19.4 | 194.43 | 309.56 | 312.28 | 21.2 | 52.2 | 1142.4 | 80.4 | 119.43 | 79.23 | Activity (Rattus norvegicus [21]): 52 ms; Activity (Rattus norvegicus [22]): 159.87 mmHg; Activity (Rattus norvegicus [23]): 83.2 min; Activity (Rattus norvegicus [24]): 84.8 min; Time (Rattus norvegicus [25]): 343.1 s; Activity (Rattus norvegicus [26]): 81.4 min; Activity (Rattus norvegicus [27]): 21.4 min; Activity (Rattus norvegicus [28]): 68.93 mmHg; Activity (Rattus norvegicus [29]): 63.51 mmHg; Activity (Rattus norvegicus [30]): 312.24 bpm; Activity (Rattus norvegicus [31]): 86.4 ms; Activity (Rattus norvegicus [32]): 55.6 min |
